# Values joined by “and” are separate entries in the source; they are usually repeats but may differ in a detail not shown here. Equal values may be shown once.
# What was measured:
# [1] = tested on: female Aedes aegypti mosquitoes; experiment: in vitro membrane repellency test, probing of blood-filled wells; format: in vivo; details: for Mean percentage repellency as calculated from the ANOVA: versus IPA control
# Experimental: (§1) Approximately 250 female Aedes aegypti mosquitoes were introduced into a chamber containing 5 wells, each covered by a Baudruche (animal intestine) membrane. Wells were filled with bovine blood, containing sodium citrate (to prevent clotting) and ATP (72 mg ATP disodium salt per 26 ml of blood), and heated to 37° C. A volume of 25 μl of isopropyl alcohol, containing one of the test specimens shown in Table 2, was applied to each membrane.
# (§2) After 5 min, 4 day-old female mosquitoes were added to the chamber. The number of mosquitoes probing the membranes for each treatment was recorded at 2 min intervals over 20 min. Each datum represents the mean of three replicate experiments.
# The dihydronepetalactone prepared in Example 4, Formula 4, was tested for repellency against Aedes aegypti mosquitoes essentially as described in Example 3. The experimental design is summarized in Table 6, and all data presented is from five replicate experiments.
# (§3) Percentage repellency was calculated for each repellent treatment at each observation time using the following equation: %Repellency=100−[(T/C)×100] where: • T=the mean number of mosquitoes probing a treated well for that replicate at time tx • C=the mean number of mosquitoes probing the IPA control well at time tx The resulting percentages were then arcsine transformed and an ANOVA was conducted using the calculated repellency from all five replicates. Multiple comparisons of means were conducted using the Student-Newman-Keuls test. The mean arcsines from ANOVA were then converted back into percentages.
# [2] = tested on: stable flies (Stomoxys calcitrans); experiment: in vitro membrane repellency test against stable flies; format: in vivo; details: 1% (w/v); for Mean Number of Landings (SEM): 20 minute test; for Mean Number of Landings (SEM) / Mean percentage repellency as calculated from the ANOVA: five replicates; for Mean percentage repellency as calculated from the ANOVA: versus IPA control
# Experimental: as §1, §2, §3
# DHN derived from hydrogenation of trans,cis-nepetalactone (consisting principally of 1S,9S,5R,6R-5,9-dimethyl-3-20 oxabicyclo[4.3.0]nonan-2-one; Formula 4), designated “Experimental Sample #1”, and the mixture of dihydronepetalactones prepared according to Example 2 (designated Experimental Sample #2; mDHN), were tested for repellency against Stomoxys calcitrans, essentially as described in Example 3. The DHN used here differed from that prepared in Example 4 in that it was derived from hydrogenation (using a Pd/SrCO3 catalyst) of trans,cis-nepetalactone crystallized from commercial oil (Berjé, NJ). In these experiments, an additional positive control compound was included, namely p-menthane-3,8-diol (PMD), obtained from Takasago International Corp. (USA), Rockleigh, N.J. The experimental design is summarized in Table 10, and all data presented is an average of five replicate experiments.
# [3] = tested on: unfed adult female A. albimanus; experiment: in vitro membrane repellency test against anopheles mosquitoes; format: in vivo, Anopheles albimanus; details: 1% (w/v); for Mean Number of Probes (SEM): 20 minute test; for Mean Number of Probes (SEM) / Mean percentage repellency as calculated from the ANOVA: five replicates; for Mean percentage repellency as calculated from the ANOVA: versus IPA control
# Experimental: as §1, §2, §3
# DHN derived from hydrogenation of trans,cis-nepetalactone (consisting principally of 1S,9S,5R,6R-5,9-dimethyl-3-oxabicyclo[4.3.0]nonan-2-one; Formula 4) designated “Experimental Sample #1”, and the mixture of dihydronepetalactones prepared according to Example 2 (designated as “Experimental Sample #2”; mDHN) were tested for repellency against one hundred unfed adult female A. albimanus, essentially as described in Example 3. The DHN used here differed from that prepared in Example 4 in that it was derived from hydrogenation (using a Pd/SrCO3 catalyst) of trans,cis-nepetalactone crystallized from commercial oil (Berjé, Bloomfield, N.J.). PMD was again included as a further control. The experimental design is summarized in Table 13, and all data presented is the average of five replicate experiments.
# [4] = tested on: deer tick Ixodes scapularis; experiment: tick repellency on forearms of human volunteers; format: in vivo; details: for statistical comparison of protection times (ANOVA): 30% (w/v); for Mean complete protection time (SEM): 30% (w/v) in isopropanol, 25 μl topically on 4 cm circle
# Experimental: A volume of 25 μl of each compound (30% (w/v) in isopropanol) was applied within 4 cm diameter circles drawn on the left forearms of six male human volunteers. Each volunteer had two repellents applied individually within two circles on this forearm; a single 4 cm diameter circle drawn on the other arm was left untreated to act as a control for tick attractiveness. Laboratory-reared unfed nymphs of the deer tick Ixodes scapularis were brought within 1 mm of the untreated circles on cotton buds (Q-tip®). If normal questing behavior was observed, and/or the insect crawled onto the untreated area, it was deemed qualified and then presented to a treated area. A qualified tick which quested at or crawled onto the treated area within 60 s was recorded as having not been repelled. […] Additionally, a qualified tick that crawled onto the treated area but fell off within an additional 60 s was recorded as repelled. Each volunteer had 5 qualified ticks offered to each treated circle at approximately hourly intervals. Exposures continued until 3 out of any group of 5 offered ticks were deemed ‘attracted’. The first non-repelled tick was defined as the first attracted tick which was followed by a second attracted tick within the same or following exposure period. The time of the first confirmed attracted tick was deemed to be the time at which complete repellency ‘broke down’ for that volunteer.
# [5] = tested on: female Anopheles albimanus mosquitoes; experiment: mosquito repellency on forearms of human volunteers (test cage); format: in vivo; details: for Mean complete protection time (h) (SEM): 1.0 ml on 250 cm^2 forearm
# Experimental: The DHN derived from hydrogenation of trans,cis-nepetalactone (consisting principally of 1S,9S,5R,6R-5,9-dimethyl-3-oxabicyclo[4.3.0]nonan-2-one; Formula 4), prepared as in Example 7, and the mixture of dihydronepetalactones prepared according to Example 2, were tested for repellency against A. albimanus, with DEET included in the test as a positive control, using adult human volunteers. Test cages (2×2×2 feet) with two sleeved entry ports on each of two opposite sides were used, with a hand rest in the center. The sides and top were screened and the base was equipped with a mirror to facilitate observations. Two hundred adult female mosquitoes, which had never received a blood meal and which had been deprived of their normal diet of 10% sucrose 24 h prior to use, were released into the test cage. Each volunteer was pre-qualified as attractive through having 10 insects land on their untreated forearms within 30 s of insertion into the cage.
# A volume of 1.0 ml of each compound (either 5% or 10% (w/v) in isopropanol) was applied to 250 cm^2 areas on the forearms of six male human volunteers, the remainder of the limbs having been made inaccessible to insects. Each volunteer had different repellents applied individually onto each forearm. After allowing the applied repellents to dry for 30 min, the forearms were placed into the test cage for 5 min periods at 30 min intervals, and the number of mosquitoes probing or biting during each exposure period recorded. Breakdown of repellency was recorded for each repellent on each volunteer. Breakdown was defined as the time at which the first confirmed bite occurred; the first confirmed bite was defined as a bite which was followed by a second bite either within the same or the next exposure period. The data is presented in Table 17 as mean complete protection time.
# [6] = tested on: Monomorium destructor ants; details: after 25 seconds of exposure to vapors; cited from earlier work
# [7] = 1% (w/v), 20 minute observation period, Example 5, five replicates
# [8] = 1% (w/v), Example 5, five replicates
Structure (SMILES),"Mean Number of Probes (SEM) [1, 7]","time until mosquito probing initiated (probing density over time, FIG. 9) ([1]; 1% (w/v), Example 5)","Mean Time (min) (SEM) to ""First probe"" [1, 8]","Mean percentage repellency as calculated from the ANOVA [1, 8]",repellency comparison between treatments (ANOVA) [2],Mean Number of Landings (SEM) [2],Mean percentage repellency as calculated from the ANOVA [2],repellency comparison between treatments (ANOVA) [3],Mean Number of Probes (SEM) [3],Mean percentage repellency as calculated from the ANOVA [3],statistical comparison of protection times (ANOVA) [4],Mean complete protection time (SEM) [4],Mean complete protection time (h) (SEM) ([5]; 5% (w/v) in isopropanol),Mean complete protection time (h) (SEM) ([5]; 10% (w/v) in isopropanol),other results
"CCN(CC)C(=O)c1cccc(C)c1 [DEET, N,N-diethyl-m-toluamide]",4.8 (3.2),6 min,14.8 min and 14.8 (3.2) min,92.4%,performed statistically equally well,17.8 (4.96),55.5%,statistically equal in efficacy,50.4 (13.01),13.3%,statistically indistinguishable in the longevity of their repellency,124 min and 124.0 (69.95) min,4.0 (0.5) h,6.2 (0.63) h,"Mean Time (min) (SEM) to ""First probe"" ([1]; 1% (w/v) in isopropyl alcohol, 25 μl on membrane, Example 3, three replicates): 12 min and 12.0 (0.0) min; Mean Number of Probes (SEM) ([1]; 1% (w/v), over 20 min, Example 3, three replicates): 4.55 and 4.55 (0.29)"
"C[C@H]1COC(=O)[C@@H]2[C@@H]1CC[C@@H]2C [DHN, (1S,9S,5R,6R)-5,9-dimethyl-3-oxabicyclo[4.3.0]nonan-2-one]",4.0 (2.16),10 min,16.0 (2.09) min,96.1%,performed statistically equally well,21.2 (3.35),43.2%,statistically equal to DEET,38.0 (9.71),32.9%,statistically indistinguishable in the longevity of their repellency,109 min and 109.0 (58.64) min,1.8 (0.12) h,3.5 h and 3.5 (0.29) h,"Mean Number of Probes (SEM) ([1]; 0.2% (w/v), 20 minute observation period, Example 5, five replicates): 23.2 (5.97); Mean Time (min) (SEM) to ""First probe"" ([1]; 0.2% (w/v), Example 5, five replicates): 8.4 (1.16) min; Mean Time (min) (SEM) to ""First probe"" ([1]; 0.2% (w/v), Example 5, five replicates, listed as dihydronepetalactone): 8.4 min; Mean Number of Probes (SEM) ([1]; 0.5% (w/v), 20 minute observation period, Example 5, five replicates): 16.2 (5.49); Mean Time (min) (SEM) to ""First probe"" ([1]; 0.5% (w/v), Example 5, five replicates): 9.6 (2.48) min; Mean Time (min) (SEM) to ""First probe"" ([1]; 0.5% (w/v), Example 5, five replicates, listed as dihydronepetalactone): 9.6 min; Mean percentage repellency as calculated from the ANOVA ([1]; 0.5% (w/v), Example 5): 66.7%; repellency rank and statistical comparison with 1% DEET ([1]; 1% (w/v), Example 5, ANOVA, Student-Newman-Keuls): ranked first in repellency, and was statistically indistinguishable from 1% DEET; Mean Time (min) (SEM) to ""First probe"" ([1]; 1% (w/v), Example 5, five replicates, listed as Dihydronepetalactone): approximately 16 min; statistical comparison of protection times (ANOVA) ([5]; 5% and 10% (w/v)): provided lesser protection times"
"CC1CCC(C(C)(C)O)C(O)C1 (centres unmarked) [PMD, p-menthane-3,8-diol]",–,–,–,–,–,33.6 (9.21),4.7%,statistically equal in efficacy,47.2 (8.57),11.5%,–,–,–,–,time after which compound became ineffective in repelling landings [2]: 6 min
"CC1COC(=O)C2C(C)CCC12 (centres unmarked) [pure dihydronepetalactone, dihydronepetalactone]",–,–,–,–,–,–,–,–,–,–,–,–,–,–,ants that ceased to feed [6]: 50-60%
